From publication PMC10762078, “Role of UPF1-LIN28A interaction during early differentiation of pluripotent stem cells” (Nature Communications, 2024)

Experiments:
[1] = test system: hPSCs; experiment: RT-qPCR of pluripotency and germ-layer markers during differentiation with CPP-peptides (Supplementary Fig. 7b-e); type: cell-based, human; details: for CXCR4 (RT-qPCR) / FOXA1 (RT-qPCR) / GATA4 (RT-qPCR) / SOX17 (RT-qPCR): Fig. s7e; for BMP2 mRNA level (RT-qPCR) / BMP4 mRNA level (RT-qPCR) / CDH2 mRNA level (RT-qPCR) / CXCR4 mRNA level (RT-qPCR) / SNAI1 mRNA level (RT-qPCR) / TBXT mRNA level (RT-qPCR): Fig. s7d
Experimental: For CPP-conjugated peptide delivery, HeLa, 293T, and PA-1 cells were incubated with CPP-conjugated peptides or CPP-FITC at 2 μM in DMEM with 10% FBS for 12 h a day before cell harvest. hPSCs were treated with CPP-conjugated peptides at 10 μM in mTeSR Plus Medium, and the peptide-containing medium was changed every day over 10 days. The ROCK inhibitor (Tocris Bioscience, Y-27632) treated-hPSCs were dissociated into single cells using Accutase (Merck, SCR005) and differentiated into ectoderm, mesoderm, and endoderm using the STEMdiff Trilineage Differentiation Kit ([…] Technologies, 05230) following the manufacturer’s protocol. Differentiated cells treated with CPP-conjugated peptides were analysed at 0, 3, and 5 days for ectoderm and endoderm, and at 0, 3, and 4 days for mesoderm. […]
cDNA was synthesised using RevertAid Reverse Transcriptase (Thermo Fisher Scientific, EP0441) with synthesised random hexamer (Macrogen) for total RNA or stem-loop primers for miRNA. For RT-qPCR reactions, the SensiFAST SYBR No-ROX kit (Meridian Bioscience) was used according to the manufacturer’s protocol. All data analysis and visualisation were conducted using R 3.6.1 [www.r-project.org] or GraphPad Prism 10. RT primers for miRNA and RT-qPCR primer sequences are provided in Supplementary Data 6. […]
FPKM of each gene was presented f r om RNA-seq analysis. b–e hPSCs wer e treated with the indicated peptide during each germ la ye r differentiation. […]
An unpaired Student’s t-test was used for a–e. Data are presented as mean values ± SEM. All statistical test us ed wer e two-s ided. T he m inim um number of independent biological replicate experim ents was a–f n = 3. T he experiments wer e conducted three tim es, each iteration producing consistent results.

[2] = test system: let-7a, let-7g, miR-16-5p and their targets in CHA15 cells; experiment: RT-qPCR of mature LIN28A-regulated miRNAs and CDF of let-7-5p / miR-16-5p target mRNAs (Supplementary Fig. 6f); type: cell-based, human; set-up: key to let-7a level (RT-qPCR): relative level normalised to U6 snRNA; details: Fig. s6f, dot plots, CHA15 cells

N-MPELQKLQQLKDE-C [P2, peptide derived from the UPF1 (419–700) domain]
CXCR4 (RT-qPCR) ([1]; Day 0, replicate 1): 1.088
CXCR4 (RT-qPCR) ([1]; Day 0, replicate 2): 0.7848
CXCR4 (RT-qPCR) ([1]; Day 0, replicate 3): 1.127
CXCR4 (RT-qPCR) ([1]; Day 3, replicate 1): 897.043
CXCR4 (RT-qPCR) ([1]; Day 3, replicate 2): 593.555
CXCR4 (RT-qPCR) ([1]; Day 3, replicate 3): 261.141
CXCR4 (RT-qPCR) ([1]; Day 5, replicate 1): 674.407
CXCR4 (RT-qPCR) ([1]; Day 5, replicate 2): 690.257
CXCR4 (RT-qPCR) ([1]; Day 5, replicate 3): 509.637
FOXA1 (RT-qPCR) ([1]; Day 0, replicate 1): 1.247
FOXA1 (RT-qPCR) ([1]; Day 0, replicate 2): 1.413
FOXA1 (RT-qPCR) ([1]; Day 0, replicate 3): 0.3396
FOXA1 (RT-qPCR) ([1]; Day 3, replicate 1): 120.605
FOXA1 (RT-qPCR) ([1]; Day 3, replicate 2): 127.453
FOXA1 (RT-qPCR) ([1]; Day 3, replicate 3): 128.785
FOXA1 (RT-qPCR) ([1]; Day 5, replicate 1): 296.789
FOXA1 (RT-qPCR) ([1]; Day 5, replicate 2): 436.764
FOXA1 (RT-qPCR) ([1]; Day 5, replicate 3): 611.507
BMP2 mRNA level (RT-qPCR) ([1]; Day 0, replicate 1): 0.8054
BMP4 mRNA level (RT-qPCR) ([1]; Day 0, replicate 1): 1.545
CDH2 mRNA level (RT-qPCR) ([1]; Day 0, replicate 1): 1.016
CXCR4 mRNA level (RT-qPCR) ([1]; Day 0, replicate 1): 0.9995
SNAI1 mRNA level (RT-qPCR) ([1]; Day 0, replicate 1): 1.4406
TBXT mRNA level (RT-qPCR) ([1]; Day 0, replicate 1): 1.3
BMP2 mRNA level (RT-qPCR) ([1]; Day 0, replicate 2): 1.199
BMP4 mRNA level (RT-qPCR) ([1]; Day 0, replicate 2): 0.6508
CDH2 mRNA level (RT-qPCR) ([1]; Day 0, replicate 2): 0.7569
CXCR4 mRNA level (RT-qPCR) ([1]; Day 0, replicate 2): 1.121
SNAI1 mRNA level (RT-qPCR) ([1]; Day 0, replicate 2): 0.9418
TBXT mRNA level (RT-qPCR) ([1]; Day 0, replicate 2): 0.8652
BMP2 mRNA level (RT-qPCR) ([1]; Day 0, replicate 3): 0.9954
BMP4 mRNA level (RT-qPCR) ([1]; Day 0, replicate 3): 0.8046
CDH2 mRNA level (RT-qPCR) ([1]; Day 0, replicate 3): 1.227
CXCR4 mRNA level (RT-qPCR) ([1]; Day 0, replicate 3): 0.8798
SNAI1 mRNA level (RT-qPCR) ([1]; Day 0, replicate 3): 0.6176
TBXT mRNA level (RT-qPCR) ([1]; Day 0, replicate 3): 0.8351
BMP2 mRNA level (RT-qPCR) ([1]; Day 3, replicate 1): 1.083
BMP4 mRNA level (RT-qPCR) ([1]; Day 3, replicate 1): 30.6184
CDH2 mRNA level (RT-qPCR) ([1]; Day 3, replicate 1): 23.3268
CXCR4 mRNA level (RT-qPCR) ([1]; Day 3, replicate 1): 950.283
SNAI1 mRNA level (RT-qPCR) ([1]; Day 3, replicate 1): 22.3091
TBXT mRNA level (RT-qPCR) ([1]; Day 3, replicate 1): 6339.58
BMP2 mRNA level (RT-qPCR) ([1]; Day 3, replicate 2): 0.8465
BMP4 mRNA level (RT-qPCR) ([1]; Day 3, replicate 2): 25.9141
CDH2 mRNA level (RT-qPCR) ([1]; Day 3, replicate 2): 19.1392
CXCR4 mRNA level (RT-qPCR) ([1]; Day 3, replicate 2): 710.257
SNAI1 mRNA level (RT-qPCR) ([1]; Day 3, replicate 2): 18.7714
TBXT mRNA level (RT-qPCR) ([1]; Day 3, replicate 2): 5442.29
BMP2 mRNA level (RT-qPCR) ([1]; Day 3, replicate 3): 1.108
BMP4 mRNA level (RT-qPCR) ([1]; Day 3, replicate 3): 28.7876
CDH2 mRNA level (RT-qPCR) ([1]; Day 3, replicate 3): 24.2422
CXCR4 mRNA level (RT-qPCR) ([1]; Day 3, replicate 3): 582.163
SNAI1 mRNA level (RT-qPCR) ([1]; Day 3, replicate 3): 15.4609
TBXT mRNA level (RT-qPCR) ([1]; Day 3, replicate 3): 8084.66
BMP2 mRNA level (RT-qPCR) ([1]; Day 4, replicate 1): 0.2114
BMP4 mRNA level (RT-qPCR) ([1]; Day 4, replicate 1): 7.214
CDH2 mRNA level (RT-qPCR) ([1]; Day 4, replicate 1): 11.5611
CXCR4 mRNA level (RT-qPCR) ([1]; Day 4, replicate 1): 685.489
SNAI1 mRNA level (RT-qPCR) ([1]; Day 4, replicate 1): 15.012
TBXT mRNA level (RT-qPCR) ([1]; Day 4, replicate 1): 2940.28
BMP2 mRNA level (RT-qPCR) ([1]; Day 4, replicate 2): 0.2729
BMP4 mRNA level (RT-qPCR) ([1]; Day 4, replicate 2): 9.74
CDH2 mRNA level (RT-qPCR) ([1]; Day 4, replicate 2): 14.1794
CXCR4 mRNA level (RT-qPCR) ([1]; Day 4, replicate 2): 388.959
SNAI1 mRNA level (RT-qPCR) ([1]; Day 4, replicate 2): 19.2435
TBXT mRNA level (RT-qPCR) ([1]; Day 4, replicate 2): 3606.85
BMP2 mRNA level (RT-qPCR) ([1]; Day 4, replicate 3): 0.3615
BMP4 mRNA level (RT-qPCR) ([1]; Day 4, replicate 3): 11.782
CDH2 mRNA level (RT-qPCR) ([1]; Day 4, replicate 3): 17.5421
CXCR4 mRNA level (RT-qPCR) ([1]; Day 4, replicate 3): 349.009
SNAI1 mRNA level (RT-qPCR) ([1]; Day 4, replicate 3): 14.5806
TBXT mRNA level (RT-qPCR) ([1]; Day 4, replicate 3): 4470.07
GATA4 (RT-qPCR) ([1]; Day 0, replicate 1): 0.7242
GATA4 (RT-qPCR) ([1]; Day 0, replicate 2): 1.3517
GATA4 (RT-qPCR) ([1]; Day 0, replicate 3): 0.9241
GATA4 (RT-qPCR) ([1]; Day 3, replicate 1): 32.2036
GATA4 (RT-qPCR) ([1]; Day 3, replicate 2): 43.7097
GATA4 (RT-qPCR) ([1]; Day 3, replicate 3): 38.0896
GATA4 (RT-qPCR) ([1]; Day 5, replicate 1): 51.4498
GATA4 (RT-qPCR) ([1]; Day 5, replicate 2): 54.8514
GATA4 (RT-qPCR) ([1]; Day 5, replicate 3): 109.794
SOX17 (RT-qPCR) ([1]; Day 0, replicate 1): 1.264
SOX17 (RT-qPCR) ([1]; Day 0, replicate 2): 0.8709
SOX17 (RT-qPCR) ([1]; Day 0, replicate 3): 0.8647
SOX17 (RT-qPCR) ([1]; Day 3, replicate 1): 1792.04
SOX17 (RT-qPCR) ([1]; Day 3, replicate 2): 907.999
SOX17 (RT-qPCR) ([1]; Day 3, replicate 3): 1484.43
SOX17 (RT-qPCR) ([1]; Day 5, replicate 1): 1721.02
SOX17 (RT-qPCR) ([1]; Day 5, replicate 2): 1190.77
SOX17 (RT-qPCR) ([1]; Day 5, replicate 3): 1778.6
let-7a level (RT-qPCR) ([2]; replicate 1): 0.9342
let-7a level (RT-qPCR) ([2]; replicate 2): 0.9709
let-7a level (RT-qPCR) ([2]; replicate 3): 0.9188
